Measured values: PubChem BioAssay AID720513 (Broad Institute, 2013)
Records with an inconclusive call do not appear.

test system: U2OS PGC1a acetylation AlphaLISA, overnight; experiment: PGC1a acetylation increase, cellular AlphaLISA – cell-based, cherry-picked samples, set 6, dose response (AID 720513);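 note: cells made to overexpress flag tagged PGC1a plus GCN5 acetyltransferase by viral infection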

SMILES	AC40
COc1cccc(NC(=O)N(C)C[C@H]2OCc3ccccc3-c3c(n(C)c4ccccc34)C(=O)N([C@@H](C)CO)C[C@@H]2C)c1	18.3 µM
COc1ccccc1-c1ccc(C2[C@@H]3CN(S(=O)(=O)c4ccc(C)cc4)C[C@H]2N3)cc1 (stereo partly drawn)	19.7 µM
COc1ccc(C(c2nnnn2C2CCCC2)N2CCC(C)CC2)c(OC)c1 (stereo not drawn)	1.86 µM
OC1CCCC1NCc1ccnc2cc(Cl)ccc12 (stereo not drawn)	10.6 µM
O=C(c1cccs1)N1CCN(c2nnc(-c3ccccc3)c3ccccc23)CC1	1.65 µM
CCOC(=O)C1=C[C@@H](C(C)C)N(S(=O)(=O)c2ccc(C)cc2)[C@H]1c1ccc(C(F)(F)F)cc1	2.64 µM
C[C@@H]1CN([C@@H](C)CO)C(=O)c2c(c3ccccc3n2C)-c2ccccc2CO[C@@H]1CN(C)C(=O)c1ccccc1	5.25 µM
CCOc1ccc(N(C)S(=O)(=O)c2cc(-c3cc(C)no3)ccc2C(C)C)cc1	2.97 µM
CC(NS(=O)(=O)c1ccccc1Cl)C1CC2CCC1C2 (stereo not drawn)	0.415 µM
CCN1CCN(c2cc(C)c3cc(NC(=O)c4ccc(Br)o4)ccc3n2)CC1	8.23 µM
Cc1ccccc1-c1ccc([C@@H]2[C@H](CO)N3CCCCN(C(=O)Nc4cccc(F)c4)C[C@@H]23)cc1	8.22 µM
CC(C)(C)n1nnnc1C(CCc1ccccc1)N1CCC2(CC1)C(=O)NCN2c1ccccc1 (stereo not drawn)	5.44 µM
Cc1ccc(-c2nnc(Nc3ccc4c(c3)OCO4)c3ccccc23)cc1S(=O)(=O)NCCO	2.08 µM
CNC(=O)c1nnsc1S(=O)c1ccc(Cl)cc1 (stereo not drawn)	1.96 µM
COc1ccc(CN2CCn3ncc(C(=O)Nc4ccccc4)c3C2=O)cc1	13.4 µM
CCOC(=O)c1c(C)n(C)c2ccc(OCC(O)Cn3nc(C)c(Br)c3C)cc12 (stereo not drawn)	0.556 µM
O=C(NCc1ccccc1)c1ccc(NC(=O)C2CC2)cc1	11.1 µM
CCCCN=C1NC(=O)C(CC(=O)Nc2ccc(Cl)cc2)S1 (stereo not drawn)	3.53 µM
CCOC(=O)C1=CC[C@@H](c2ccc(F)cc2)N(S(=O)(=O)c2ccc(C)cc2)[C@H]1c1ccccc1	3.22 µM
CCC(C)(C)n1nnnc1C(c1ccccc1OC)N1CCSCC1 (stereo not drawn)	1.45 µM
COc1cc2nc(SCc3c(C)noc3C)n(CCC3=CCCCC3)c(=O)c2cc1OC	2.51 µM
O=C(NCCC1CCCCN1S(=O)(=O)c1cccs1)C(=O)Nc1ccc(F)cc1F (stereo not drawn)	9.6 µM
CCN(CC)c1ccc(NC(=O)c2cc(OC)cc(OC)c2)c(C)c1	12.3 µM
CNC(=O)c1cccn(Cc2ccc(C(F)(F)F)cc2)c1=O	17.5 µM
Cc1cccc(C)c1-n1nnnc1C(c1cccs1)N1CCC(n2c(=O)[nH]c3ccccc32)CC1 (stereo not drawn)	5.87 µM
N#Cc1ccccc1COC(=O)c1ccc2c(c1)OCCO2	5.43 µM

SMILES	AC40
N#Cc1ccc(Oc2cccnc2)cc1C#N	6.09 µM
O=C(NCc1ccccc1)C1Cc2c(-c3ccc(Cl)cc3)ccnc2O1 (stereo not drawn)	6.16 µM
CCN(CC)CCCn1c(=S)[nH]c2cc(Cl)ccc2c1=O	0.631 µM
O=C(Nc1ccc(F)cc1)N1CCN(c2nc3ccccc3s2)CC1	2.7 µM
O=C(NCc1ccco1)c1scc2c1OCCO2	12.3 µM
Cc1cccc(-c2ccc3[nH]c4c(c3c2)CCN2C[C@@H]([C@H](C)O)[C@@H](N(C)C(=O)NC3CCCCC3)C[C@@H]42)c1	13.7 µM
COc1cccc(CN2C[C@@H]3N[C@H](C2)C3c2ccc(-c3cccc(C#N)c3)cc2)c1 (stereo partly drawn)	10 µM
Oc1ccc(C[C@@H]2CNCCN2CCC23CC4CC(CC(C4)C2)C3)cc1	6.79 µM
O=[N+]([O-])c1ccc(S(=O)(=O)c2cccc(C(F)(F)F)c2)nc1	0.581 µM
COc1ccc(C2CC(=O)N(C)c3ccccc3S2)cc1 (stereo not drawn)	6.61 µM
O=C(Cc1ccccc1)Nc1nc(-c2ccc(F)c(F)c2)cs1	1.44 µM
COc1ccc(Cc2nc(-c3ccc(NC(=O)c4cccnc4)cc3)no2)cc1	0.991 µM
C[C@@H]1CN([C@@H](C)CO)C(=O)c2c(c3ccccc3n2C)-c2ccccc2CO[C@@H]1CN(C)C(=O)Nc1ccccc1C(F)(F)F	6.99 µM
COc1ccc(NC(=O)c2sccc2SCc2cccc(C(F)(F)F)c2)cc1	4.18 µM
OC(c1ccccc1)(C1CCCCC1)C(CN1CCOCC1)c1ccccc1 (stereo not drawn)	0.634 µM
COc1ccc(CN(CCC(C)C)S(=O)(=O)c2ccccc2Br)cc1	2.04 µM
O=C(CCCn1c(=O)[nH]c2cc(Cl)ccc2c1=O)NCCC1=CCCCC1	0.371 µM
N#C/C(=C(/O)c1ccco1)c1nc2ccccc2[nH]1	0.841 µM
O=S1(=O)CCOC[C@H](CC2CCCCC2)N1Cc1ccc(F)cc1	9.18 µM
Cc1cccc(Nc2nnc(-c3ccc(C(=O)N4C[C@H]5C[C@H](C4)c4cccc(=O)n4C5)cc3)c3ccccc23)c1	11.2 µM
Cc1ccc(Nc2nnc(C)c3ccccc23)c(C)c1	2.09 µM
O=C(NCCC1=CCCCC1)c1coc(=O)c(Br)c1	1.37 µM
O=C(NN1c2ccccc2CCc2ccccc21)c1ccccc1Br	4.84 µM
COc1ccc(NC(=O)N(C)C[C@H]2OCc3ccccc3-c3c(n(C)c4ccccc34)C(=O)N([C@@H](C)CO)C[C@H]2C)c(OC)c1	3.5 µM
c1coc(CN(Cc2cccs2)Cc2nnnn2C2CCCCC2)c1	2.52 µM
C[C@H](CO)N1C[C@H](C)[C@@H](CN(C)Cc2ccc3c(c2)OCO3)Oc2ccc(NC(=O)Nc3ccc4c(c3)OCO4)cc2CC1=O	18.2 µM

SMILES	AC40
O=C(c1ccccc1)c1nn(-c2ccc(Cl)cc2)c(=O)cc1C(F)(F)F	0.451 µM
CN1CCN(C(=O)CSc2nc(-c3cccs3)cc(-c3cccs3)c2C#N)CC1	2.77 µM
Cc1ccc(S(=O)(=O)N(Cc2ccc(F)cc2)Cc2ccco2)cc1	6.76 µM
COc1ccc(S(=O)(=O)N(Cc2ccccc2)Cc2nc(-c3ccccc3)no2)cc1	8.22 µM
C[C@H]1CN([C@@H](C)CO)C(=O)c2cccc(NC(=O)Nc3cccc4ccccc34)c2O[C@H]1CN(C)Cc1ccc(C(=O)Nc2ccccc2N)cc1	7.53 µM
CC1(C)OC(C)(C)/C(=C\c2ccc(OCC(N)=O)cc2)C1=O	6.64 µM
C[C@@H]1CN([C@@H](C)CO)C(=O)c2c(c3ccccc3n2C)-c2ccccc2CO[C@@H]1CN(C)C(=O)c1ccc(F)cc1	4.7 µM
O=C(NCc1cccnc1)c1ccc(NC(=O)c2ccc(Br)cc2)cc1	< 0.16 µM
COc1ccc(CNc2ccc(-c3ccc(OC)cc3)nn2)cc1	1.47 µM
CC(=O)Nc1sc2c(c1-c1nc3ccccc3s1)CN(C(C)C)CC2	1.45 µM
COC(=O)[C@@]1(C)[C@H]2C(=O)N(Cc3ccccc3)C(=O)[C@H]2[C@H]2CN=C(SCC3CC3)N21	16.8 µM
COc1ccc(-n2c(=O)c3c4c(sc3n3c(=S)[nH]nc23)CCC4)cc1	0.563 µM
COc1ccc(C(=O)NN(C)c2nc(-c3ccccc3)cc(C)c2S(C)(=O)=O)cc1	19 µM
Cc1ccc(C(=O)c2c[nH]c(C(=O)NCc3cccnc3)c2)cc1	2.67 µM
CC(OC(=O)C1CCCC1)C(=O)Nc1ccc(C(N)=O)cc1 (stereo not drawn)	15.8 µM
CCOc1ccccc1CN1CCN(C2CCC2)CC1CCO (stereo not drawn)	6.23 µM
CCOC(=O)N1CCN(C(=O)C(NS(=O)(=O)c2cccc3nsnc23)c2ccccc2)CC1 (stereo not drawn)	17.9 µM
Cc1ccc(S(=O)(=O)NC(CC(C)C)C(=O)N2CCCCCCC2)cc1 (stereo not drawn)	1.59 µM
Nc1c(C(=O)c2ccccc2)sc2nsc(SCCN3CCCC3)c12	9.72 µM
CCOC(=O)c1c(NC(=O)CSc2cn(CC)c3ccccc23)sc2c1CCC2	6.55 µM
O=C(CN1CCC(N2CCCCC2)CC1)N1CCCc2ccccc21	11.1 µM
Cc1cc2c(cc1S(=O)(=O)N1CCc3ccccc31)NC(=O)CO2	2.18 µM
Cc1ccc(OC(=O)N(C)C[C@H]2OCc3ccccc3-c3c(n(C)c4ccccc34)C(=O)N([C@H](C)CO)C[C@H]2C)cc1	7.6 µM
Cc1cc(C)c2c(-n3cccc3)c(C(=O)NNS(=O)(=O)c3ccc(F)cc3)sc2n1	5.62 µM
Cc1ccc2[nH]cc(C(=O)CN3CCN(c4ccccc4F)CC3)c2c1	2.99 µM
O=C(NCc1cccs1)c1ccc(Cl)c(S(=O)(=O)N2CCCC2)c1	3.54 µM

SMILES	AC40
OCCNc1nc(N2CCCCC2)nc2ccccc12	18.1 µM
CC1CN(S(=O)(=O)c2ccc(C(=O)NCCCn3ccnc3)cc2)CC(C)O1 (stereo not drawn)	0.246 µM
Cc1cccc(CS(=O)(=O)c2ncc(Cl)c(C(=O)Nc3ccc(F)cc3)n2)c1	1.56 µM
OC(COc1ccc(CNCCc2ccc(C(F)(F)F)cc2)cc1)CN1CCCCC1 (stereo not drawn)	0.9 µM
CC(C)NC(=O)N(C)C[C@H]1OCCCC[C@@H](C)Oc2ccc(NC(=O)Cc3ccccc3)cc2C(=O)N([C@@H](C)CO)C[C@H]1C	16.4 µM
Cc1ccc(NC(=O)c2sccc2SCc2cccc(C(F)(F)F)c2)cc1	5.13 µM
CC1(Cc2ccc(Cl)cc2)C(=O)Nc2c(Cl)ccc(Cl)c21 (stereo not drawn)	4.52 µM
COc1ccccc1NC(=O)c1ccc(NC(=O)CNC(=O)c2ccc(OC)c(OC)c2)cc1	15.7 µM
CC(C)(C)n1nnnc1CN(Cc1ccc(F)cc1)Cc1ccco1	1.73 µM
O=C(/C=C/Sc1ncn[nH]1)c1ccc(Cl)cc1	0.395 µM
COc1ccc(N(C(=O)c2snc(C(N)=O)c2N)C(C(=O)NC2CCCCC2)c2ccc(F)cc2)c(OC)c1 (stereo not drawn)	3.26 µM
C[C@@H]1CN([C@@H](C)CO)C(=O)c2c(c3ccccc3n2C)-c2ccccc2CO[C@@H]1CN(C)C(=O)Oc1ccccc1	7.26 µM
COc1cccc(C(=O)c2c[nH]c(C(=O)NCc3cccnc3)c2)c1	1.4 µM
CCOC(=S)SCC(=O)Nc1nc(C)c(C)s1	3.58 µM
Cc1csc(NC(=O)NC2(C(F)(F)F)Oc3ccccc3O2)n1	6.24 µM
COc1cc(CN2[C@@H]3CNC[C@H]2C3c2ccc(-c3ccccc3)cc2)cc(OC)c1 (stereo partly drawn)	18.3 µM
Cc1ccc(S(=O)(=O)CCSC(=N)N)cc1	5.17 µM
COc1ccccc1-c1ccc2c(c1)O[C@@H](CN(C)Cc1ccc3c(c1)OCO3)[C@@H](C)CN([C@@H](C)CO)S2(=O)=O	10.6 µM
COc1cccc(S(=O)(=O)N(C)C[C@@H]2Oc3cc(C4=CCCC4)ccc3S(=O)(=O)N([C@H](C)CO)C[C@@H]2C)c1	13 µM
O=C(Nc1ccc(OCC(=O)N2CCC(Cc3ccccc3)CC2)cc1)c1ccco1	3.17 µM
CCN(CC)S(=O)(=O)c1c(Br)cc(C)cc1Br	1.29 µM
CCCCC(=O)Nc1ccc(C(=O)NCCCn2ccnc2)cc1	0.269 µM
COC(=O)c1c(NC(=O)COC(=O)[C@@H](NS(=O)(=O)c2ccccc2)C(C)C)sc2c1CCC2	13.5 µM
Cc1ccc2c(c1)CC1(CN2C)C(=O)NC(=O)N(C(C)C)C1=O (stereo not drawn)	12 µM
CCC(C)(C)n1nnnc1CN(Cc1ccc(Cl)cc1)Cc1ccco1	1.39 µM
